In ChEMBL document CHEMBL1125954, “Studies on quinazolinones. 3: 1 novel and efficient route to the synthesis of conformationally restricted analogues of ketanserin and SGB-1534 as antihypertensive agents” (Bioorg Med Chem Lett, 1991):

Molecular target: Adrenergic receptor alpha-1 (Rattus norvegicus) (UniProt P15823+P23944+P43140)
Experiment: Compound was tested for antihypertensive activity mediated through Alpha-1 adrenergic receptor in anesthetized rat
Format: functional

O=C1Nc2ccccc2C2=NC(CN3CCN(c4ccccc4)CC3)CN12 (stereo unspecified)
ED50: 0.25 mg/kg
